The text below walks through data of ChEMBL document CHEMBL5120865, “Exploration of 6-methyl-7-(Hetero)Aryl-7-Deazapurine ribonucleosides as antileishmanial agents” (Eur J Med Chem, 2022).

Data set [1] has as its system Leishmania infantum. As to the kind of experiment: Antileishmanial activity against intracellular Leishmania infantum MHOM/MA(BE)/67 ITMAP263 amastigotes infected in Swiss mouse peritoneal macrophage assessed as inhibition of parasite growth measured after 5 days by geimsa staining based microscopic analysis. It counts as functional, organism-based. To be noted: MHOM/MA(BE)/67 ITMAP263, Peritoneal macrophage, 120 h.

Data set [2] can be described thus: Cytotoxicity against Swiss mouse peritoneal macrophages assessed as reduction in cell viability measured after 5 days by microscopic analysis. In kind it is toxicity, cell-based, Peritoneal macrophage. The settings on record: time 5 day.
Data set [3] can be described thus: Selectivity index, ratio of CC50 for Cytotoxicity against Swiss mouse peritoneal macrophages to EC50 for intracellular Leishmania infantum MHOM/MA(BE)/67 ITMAP263 amastigotes infected in Swiss mouse peritoneal macrophages. In kind it is toxicity, cell-based. The settings on record: read-out: Ratio CC50/EC50.
Data set [4] is described as follows: Cytotoxicity against human MRC5 cells assessed as reduction in cell viability incubated for 3 days by resazurin dye based fluorescence analysis. To be noted: time 3 day. In kind it is toxicity.
Data set [5] concerns Trypanosoma cruzi. Put plainly: Antitrypanosomal activity against nifurtimox-sensitive Tulahuen CL2 amastigotes expressing beta galactosidase infected in human MRC5 cells assessed as inhibition of parasite growth using chlorophenol red beta-D-galactopyranoside as substrate and measured after 7 days by spectrophotometric analysis. In kind it is functional, organism-based. The settings on record: Tulahuen CL2, MRC5, 168 h, read-out: EC50.

The nature of data set [6]: Selectivity index, ratio of CC50 for cytotoxicity against human MRC5 cells to EC50 for Trypanosoma cruzi Tulahuen CL2 amastigotes expressing beta galactosidase infected in human MRC5 cells. It counts as toxicity, cell-based. The settings on record: read-out: Ratio CC50/EC50.
For data set [7], the system named is Leishmania infantum. As to the kind of experiment: Antileishmanial activity against sodium stibogluconate and potassium antimonyl tartrate resistant intracellular Leishmania infantum MHOM/FR/96/LEM3323-CI4 promastigotes infected in Swiss mouse peritoneal macrophages assessed as inhibition of parasite growth measured after 96 hrs by microscopic analysis. It counts as functional, organism-based. To be noted: MHOM/FR/96/LEM3323-CI4, Peritoneal macrophage.

For data set [8], the system named is Leishmania infantum. As to the kind of experiment: Antileishmanial activity against sodium stibogluconate, potassium antimonyl tartrate and MIL resistant intracellular Leishmania infantum MHOM/FR/96/LEM3323-CI4 MIL5C13 promastigotes infected in Swiss mouse peritoneal macrophages assessed as inhibition of parasite growth measured after 96 hrs by microscopic analysis. In kind it is functional, organism-based. The settings on record: MHOM/FR/96/LEM3323-CI4 MIL5C13, Peritoneal macrophage.

Data set [9] deals with Leishmania infantum. As to the kind of experiment: Antileishmanial activity against sodium stibogluconate, potassium antimonyl tartrate and PMM resistant intracellular Leishmania infantum MHOM/FR/96/LEM3323-CI4 PMM promastigotes infected in Swiss mouse peritoneal macrophages assessed as inhibition of parasite growth measured after 96 hrs by microscopic analysis. It counts as functional, organism-based. The settings on record: Peritoneal macrophage.

The nature of data set [10]: Metabolic stability in golden hamster liver microsomes S9 fraction assessed as CYP450-mediated metabolism by measuring parent compound remaining measured after 60 mins in presence of NADPH. It counts as ADME, subcellular, Mesocricetus auratus. The settings on record: read-out: Stability. Background: Liver microsomes are a subcellular fraction often used to study metabolism.

Data set [11] is described as follows: Metabolic stability in golden hamster liver microsomes S9 fraction assessed as CYP450-mediated metabolism by measuring parent compound remaining measured after 30 mins in presence of NADPH. In kind it is ADME, subcellular, Mesocricetus auratus. To be noted: read-out: Stability.
Data set [12] can be described thus: Metabolic stability in golden hamster liver microsomes S9 fraction assessed as CYP450-mediated metabolism by measuring parent compound remaining measured after 15 mins in presence of NADPH. In kind it is ADME, subcellular, Mesocricetus auratus. To be noted: read-out: Stability.
Data set [13] in a line: Metabolic stability in mouse liver microsomes S9 fraction assessed as UGT-mediated metabolism by measuring parent compound remaining measured after 60 mins in presence of NADPH. In kind it is ADME, subcellular. The settings on record: read-out: Stability.
Data set [14] in a line: Metabolic stability in mouse liver microsomes S9 fraction assessed as UGT-mediated metabolism by measuring parent compound remaining measured after 30 mins in presence of NADPH. In kind it is ADME, subcellular. The settings on record: read-out: Stability.
A short description of data set [15]: Metabolic stability in mouse liver microsomes S9 fraction assessed as CYP450-mediated metabolism by measuring parent compound remaining measured after 60 mins in presence of NADPH. It counts as ADME, subcellular. The settings on record: read-out: Stability.
Data set [16] is described as follows: Metabolic stability in mouse liver microsomes S9 fraction assessed as CYP450-mediated metabolism by measuring parent compound remaining measured after 30 mins in presence of NADPH. It counts as ADME, subcellular. To be noted: read-out: Stability.
Data set [17] can be described thus: Metabolic stability in mouse liver microsomes S9 fraction assessed as CYP450-mediated metabolism by measuring parent compound remaining measured after 15 mins in presence of NADPH. In kind it is ADME, subcellular. The settings on record: read-out: Stability.
A short description of data set [18]: Metabolic stability in mouse liver microsomes S9 fraction assessed as UGT-mediated metabolism by measuring parent compound remaining measured after 15 mins in presence of NADPH. In kind it is ADME, subcellular. The settings on record: read-out: Stability.
Data set [19] is described as follows: Metabolic stability in golden hamster liver microsomes S9 fraction assessed as UGT-mediated metabolism by measuring parent compound remaining measured after 15 mins in presence of NADPH. It counts as ADME, subcellular, Mesocricetus auratus. The settings on record: read-out: Stability.
The nature of data set [20]: Metabolic stability in golden hamster liver microsomes S9 fraction assessed as UGT-mediated metabolism by measuring parent compound remaining measured after 30 mins in presence of NADPH. In kind it is ADME, subcellular, Mesocricetus auratus. To be noted: read-out: Stability.
Data set [21] is described as follows: Metabolic stability in golden hamster liver microsomes S9 fraction assessed as UGT-mediated metabolism by measuring parent compound remaining measured after 60 mins in presence of NADPH. In kind it is ADME, subcellular, Mesocricetus auratus. To be noted: read-out: Stability.
Data set [22] concerns the target T1, Cytochrome P450 (Homo sapiens, UniProt P04798+P05177+P05181+P08684+P10632+P10635+P11509+P11712+P13584+P20813+P20815+P20853+P24462+P24903+P33260+P33261+P51589+P78329+P98187+Q02928+Q08477+Q16678+Q16696+Q5TCH4+Q6VVX0+Q7Z449+Q8TAV3+Q96SQ9+Q9HB55). As to the kind of experiment: Metabolic stability in human liver microsomes S9 fraction assessed as CYP450-mediated metabolism by measuring parent compound remaining measured after 15 mins in presence of NADPH. In kind it is ADME, subcellular. The settings on record: read-out: Stability.

In data set [23] the target is T1, Cytochrome P450. Put plainly: Metabolic stability in human liver microsomes S9 fraction assessed as CYP450-mediated metabolism by measuring parent compound remaining measured after 30 mins in presence of NADPH. It counts as ADME, subcellular. The settings on record: read-out: Stability.
Data set [24] addresses T1, Cytochrome P450. As to the kind of experiment: Metabolic stability in human liver microsomes S9 fraction assessed as CYP450-mediated metabolism by measuring parent compound remaining measured after 60 mins in presence of NADPH. In kind it is ADME, subcellular. To be noted: read-out: Stability.
Data set [25] deals with T2, UDP-glucuronosyltransferases (UGTs) (Homo sapiens, UniProt O60656+O75310+O75795+P06133+P0DTE4+P0DTE5+P16662+P19224+P22309+P22310+P35503+P35504+P36537+P54855+Q6UWM9+Q9BY64+Q9HAW7+Q9HAW8+Q9HAW9). Put plainly: Metabolic stability in human liver microsomes S9 fraction assessed as UGT-mediated metabolism by measuring parent compound remaining measured after 15 mins in presence of NADPH. The settings on record: read-out: Stability. In kind it is ADME, subcellular.

Data set [26] deals with T2, UDP-glucuronosyltransferases (UGTs). As to the kind of experiment: Metabolic stability in human liver microsomes S9 fraction assessed as UGT-mediated metabolism by measuring parent compound remaining measured after 30 mins in presence of NADPH. The settings on record: read-out: Stability. In kind it is ADME, subcellular.
The target is the same in data set [27]. As to the kind of experiment: Metabolic stability in human liver microsomes S9 fraction assessed as UGT-mediated metabolism by measuring parent compound remaining measured after 60 mins in presence of NADPH. It counts as ADME, subcellular. To be noted: read-out: Stability.
Data set [28] concerns Leishmania infantum. As to the kind of experiment: Antileishmanial activity against intracellular Leishmania infantum MHOM/MA(BE)/67 amastigotes infected in golden hamster assessed as reduction of amastigote burdens in bone marrow at 40 mg/kg, po SID for 5 days by geimsa staining based microscopic analysis. It counts as functional. The arrangement: scale not given: the % may be the effect or the level left. To be noted: time 5 day.

In data set [29] the test system is Leishmania infantum. As to the kind of experiment: Antileishmanial activity against intracellular Leishmania infantum MHOM/MA(BE)/67 amastigotes infected in golden hamster assessed as reduction of amastigote burdens in liver at 40 mg/kg, po SID for 5 days by geimsa staining based microscopic analysis. The settings on record: time 5 day. The arrangement: scale not given: the % may be the effect or the level left. It counts as functional.

For data set [30], the system named is Leishmania infantum. As to the kind of experiment: Antileishmanial activity against intracellular Leishmania infantum MHOM/MA(BE)/67 amastigotes infected in golden hamster assessed as reduction of amastigote burdens in spleen at 40 mg/kg, po SID for 5 days by geimsa staining based microscopic analysis. In kind it is functional. The settings on record: time 5 day. The arrangement: scale not given: the % may be the effect or the level left.

For orientation: EC50 means the concentration needed to bring the measured effect to its halfway point. The CC50 is the concentration that lowers cell viability or growth by half. With `Cc1ncnc2c1c(-c1cccc3c1N=CC3)cn2[C@@H]1O[C@H](CO)[C@@H](O)[C@H]1O`, the figures for the EC50 in data set [1] and in [5] were 2100 nM and 3300 nM, respectively. Further, the CC50 at 120 h in [2] was > 64 µM. For the same molecule, the selectivity ratio in [3] was > 30; in data set [6] it was > 19. The CC50 at 72 h in data set [4] is > 64 µM.

For `Cc1ncnc2c1c(-c1cccc3cccnc13)cn2[C@@H]1O[C@H](CO)[C@@H](O)[C@H]1O`, the concentration giving a half-maximal response (EC50) amounted to 3700 nM in data set [1] and 9600 nM in data set [5]. The CC50 at 120 h in data set [2] was > 64 µM. For the same molecule, the selectivity ratio is > 17 in [3] and > 6.7 in [6]. Further, in [4], the 50% cytotoxic concentration (CC50) at 72 h was > 64 µM.

Regarding `Cc1ncnc2c1c(-c1cc3ccccc3[nH]1)cn2[C@@H]1O[C@H](CO)[C@@H](O)[C@H]1O`, the results for the EC50 in data set [1] and in [5] were 1700 nM and 620 nM, respectively. Also, in data set [2], the CC50 at 120 h is > 64 µM. The figures for the selectivity ratio in data set [3] and in data set [6] were > 36 and 24, respectively. Moreover, in data set [4], the 50% cytotoxic concentration (CC50) at 72 h stood at 14.8 µM.

In the case of `Cc1ncnc2c1c(-c1ncccc1Cl)cn2[C@@H]1O[C@H](CO)[C@@H](O)[C@H]1O`, the EC50 was 1200 nM in data set [1]; 670 nM in data set [7]; 730 nM in data set [8]; 1460 nM in data set [9]; 700 nM in data set [5]. In data set [2], the CC50 at 120 h was > 64 µM. Besides, the results for the selectivity ratio in data set [3] and in data set [6] were > 50 and > 91, respectively. Also, the cytotoxic concentration (CC50) at 72 h in [4] is > 64 µM. Besides, the remaining at 1 h is 90% in [10]; 98% in [13]; 74% in [15]; 96% in data set [21]; 99% in data set [24]; 101% in data set [27]. Moreover, the remaining at 0.5 h in data set [11] stood at 98%; in data set [14], 91%; in data set [16], 83%; in data set [20] it was 96%; in data set [23], 100%; in [26], 95%. Moreover, the remaining at 0.25 h in data set [12] is 86%; in data set [17], 98%; in [18] it was 92%; in [19], 95%; in data set [22] it was 107%; in data set [25] it was 93%.

As for `Cc1ncnc2c1c(-c1nccs1)cn2[C@@H]1O[C@H](CO)[C@@H](O)[C@H]1O`, the values for the EC50 in [1] and in data set [5] were 2070 nM and 660 nM, respectively. For the same molecule, in [2], the CC50 at 120 h was 32 µM. For the same molecule, the selectivity ratio worked out at 15.5 in data set [3] and 9.2 in data set [6]. Moreover, the cytotoxic concentration (CC50) at 72 h in data set [4] worked out at 6.06 µM.

In the case of `CCCCCCCCCCCCCCCCOP(=O)([O-])OCC[N+](C)(C)C` [MILTEFOSINE], the EC50 in data set [1] is 8300 nM. Moreover, the results for the Activity in [28], in [29] and in data set [30] were 93.1%, 94% and 99.2%, respectively.
